These are literature values, as cited in US20040248933A1, “Use of 4-phenyl-substituted tetrahydroisoquinolines in the treatment of pain, migraine headaches and urinary incontinence” (priority 2002, published 2004).

In the data set the test system is nocturnal enuresis patients. The following applies: patients with nocturnal enuresis following treatment.

Structures are written as SMILES.

For the compound `CN(C)CCCN1c2ccccc2CCc2ccccc21` [imipramine, Imipramine], the “Enuresis cured, share of patients” value is given as “over 50%”. Also, the “Improvements seen, further share of patients” value (in addition to those cured) is listed as 15-20%.
